Data: US8546377B2 (AbbVie Inc., priority 2009, dated 2013)
“Also recorded” adds a separate entry of the source. Where two headings read alike, the source gives them in different places.

Assays:
[1] = test system: PCP-induced hyperactivity; test: Phencyclidine (PCP)-induced hyperlocomotion in mice; type: in vivo; conditions: test compound ip 30 minutes before phencyclidine 2.0 mg/kg sc, FIG. 4
Experimental: (§1) (v) Assessment of Effects on Psychostimulant-Induced Hyperlocomotion in Mice
In humans, phencyclidine (PCP) is known to produce a syndrome of behavioral effects which have many characteristics in common with schizophrenia. Therefore, antagonism of PCP effects might be evidence for antipsychotic efficacy of a compound.
(§2) Male NMRI mice (5-week old, Janvier, France) or C57BL/6J mice (6-week old, Janvier, France) were group housed and allowed ad-libitum access to food and water. A 12 hour light/dark cycle was imposed with lights-on period between 0530 and 1730 hours. All testing occurred between 700 and 1300 hours. All procedures were approved by Abbott Institutional Animal Care and Use Committee (USA) or Animal Welfare Officer (Germany) and were conducted in accordance with the National Institutes of Health Guide for Care and Use of Laboratory Animals guidelines and applicable national laws in the facilities accredited by the Association for the Assessment and Accreditation of Laboratory Animal Care.
On the day of experiment, animals were brought from the animal facility into the experimental room and were allowed to acclimatize for at least 30 minutes. Animals were then placed in the test cages for a habituation period of 60 minutes. […] The analyzed data were: fine movements, ambulations and total movements (fine+ambulations). […]

5HT2C receptors [2] = biological target: T1, 5HT2C receptors (Homo sapiens, UniProt P28335); test: Human 5-HT2C functional assay in 1321N1 cells (intracellular calcium, FLIPR); type: cell-based; parameters: expressed in transfected cells; host or cells: 1321N1 cells
T1 sequence (P28335 33-458): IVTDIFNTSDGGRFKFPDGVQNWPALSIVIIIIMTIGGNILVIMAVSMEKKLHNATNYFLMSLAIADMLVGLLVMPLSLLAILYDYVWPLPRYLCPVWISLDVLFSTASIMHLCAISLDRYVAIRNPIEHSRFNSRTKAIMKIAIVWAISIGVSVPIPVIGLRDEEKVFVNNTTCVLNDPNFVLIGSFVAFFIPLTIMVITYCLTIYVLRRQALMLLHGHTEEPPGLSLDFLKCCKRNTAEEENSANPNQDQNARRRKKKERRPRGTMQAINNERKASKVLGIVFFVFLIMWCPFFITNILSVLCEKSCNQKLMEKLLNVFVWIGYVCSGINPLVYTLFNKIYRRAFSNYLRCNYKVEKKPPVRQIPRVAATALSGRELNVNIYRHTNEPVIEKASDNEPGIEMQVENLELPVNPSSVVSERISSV
Outline: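 Intracellular calcium in 1321N1 cells stably transfected with human 5-HT2C, serum-starved overnight, Fluo4 AM-loaded with 1% probenecid. Compounds at 10^−10 to 10^−5 M final, alone or with 10^−9 M serotonin; peak FLIPR response. EC50 from four-parameter logistic fit; Emax as % of serotonin effect.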

[3] = biological target: T2, human serotonin 5-HT2c receptor (Homo sapiens, UniProt P28335); test: Human 5-HT2C receptor radioligand binding assay (agonist site, [125I](±)DOI); conditions: membranes of transfected CHO cells, 0.2 nM [125I](±)DOI, 15 minutes at 37° C.
T2 construct: expressed in transfected cells; host or cells: CHO cells (membrane homogenate)
T2 sequence (P28335 33-458): T1 sequence (P28335 33-458)
Outline: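 Affinity for the agonist site measured by radioligand binding in transfected CHO cells expressing the human receptor, using [125I](±)DOI.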

[4] = test system: AMP-induced hyperactivity; test: d-Amphetamine-induced hyperlocomotion in mice; type: in vivo
Source text: as §1
In both humans and experimental animals amphetamine profoundly affects motor activity, sensorimotor function, sleep, attention, aggressive and sexual behaviors, learning and memory, operant behaviors, appetite and food intake. In addition, amphetamine induces psychotic reactions in normal individuals and exacerbates symptoms of schizophrenia in patients. In experimental animals several distinct behaviors are considered to be correlates of amphetamine psychosis. For example, amphetamine-induced hyperactivity in rodents is believed to model the psychotic symptoms of schizophrenia. Reversal of these behaviors is used to predict potential antipsychotic activity of drugs in pre-clinical studies.
as §2
On the day of experiment, animals were brought from the animal facility into the experimental room and were allowed to acclimatize for at least 30 minutes. Animals were then placed in the test cages for a habituation period of 60 minutes. The animals were then injected ip with the test compound and returned to the test cage. 30 Minutes later, the mice were injected with d-amphetamine (2.0 mg/kg, AMP, Sigma, #A5880, sc) or phencyclidine (2.0 mg/kg, PCP, Sigma, #P3029, sc), and returned to the test cages for 90 minutes. […] The analyzed data were: fine movements, ambulations and total movements (fine+ambulations). […]

spontaneous activity = test: Spontaneous activity in mice; type: in vivo; conditions: vehicle or a dose of test compound, FIG. 2b, FIG. 3b
5HT2C receptors [5] = biological target: T1, 5HT2C receptors; test: Human 5-HT2C functional assay in CHO-K1 cells (calcium flux, FLIPR); type: cell-based; parameters: expressed in transfected cells; host or cells: CHO-K1 cells; conditions: for Emax: percentage relative to the effect of serotonin
Outline: (§3)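 Frozen CHO-K1 cells over-expressing receptor, serum-starved overnight, loaded with Ca4 dye plus 2.5 mM probenecid for 60 min at room temperature. FLIPR fluorescence (ex 480/em 530 nm, 25° C) recorded 3 min after compound addition; 6-point 1:10 series from 10 μM, 0.2% DMSO. Response normalized to serotonin, 4-parameter fit gives EC50; Emax as % of serotonin.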

5HT2B receptors = biological target: T3, 5HT2B receptors (Homo sapiens, UniProt P41595); test: Human 5-HT2B functional assay in CHO-K1 cells (calcium flux, FLIPR); type: cell-based
T3 construct: expressed in transfected cells; host or cells: CHO-K1 cells
Outline: as §3

T3 sequence (P41595 whole entry): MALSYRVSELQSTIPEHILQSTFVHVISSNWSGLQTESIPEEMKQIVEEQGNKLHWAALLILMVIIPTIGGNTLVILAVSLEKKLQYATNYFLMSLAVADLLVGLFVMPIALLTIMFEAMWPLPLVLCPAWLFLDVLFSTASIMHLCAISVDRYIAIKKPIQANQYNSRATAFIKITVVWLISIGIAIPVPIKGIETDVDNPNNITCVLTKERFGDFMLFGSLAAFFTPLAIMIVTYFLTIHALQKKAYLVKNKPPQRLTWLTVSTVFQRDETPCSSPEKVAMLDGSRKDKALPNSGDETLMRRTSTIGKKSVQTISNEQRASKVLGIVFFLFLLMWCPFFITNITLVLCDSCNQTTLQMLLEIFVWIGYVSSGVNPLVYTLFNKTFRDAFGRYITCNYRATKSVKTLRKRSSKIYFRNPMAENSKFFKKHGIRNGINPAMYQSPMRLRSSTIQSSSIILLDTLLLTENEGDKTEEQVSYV

| EC50 (5HT2C receptors [5]; CHO-K1 cells over-expressing 5HT2C, calcium flux, read-out: EC50 (μM), 5-HT2c Agonist Activity) [µM] | Emax (5HT2C receptors [5]; CHO-K1 cells, read-out: Emax (%), 5-HT2c Agonist Activity) [%] | EC50 (5HT2B receptors; CHO-K1 cells over-expressing 5HT2B, calcium flux, read-out: EC50 (μM), 5-HT2B Agonist Activity) [µM] | Structure (SMILES) | PCP-induced hyperactivity [1] | EC50 (5HT2C receptors [2]; 1321N1 cells stably transfected, maximum calcium response, read-out: EC50 (μM), 5-HT2c Agonist Activity) [µM] | Emax (5HT2C receptors [2]; 1321N1 cells, percentage relative to the effect of serotonin, read-out: Emax (%), 5-HT2c Agonist Activity) [%] | Ki [3] [µM] | AMP-induced hyperactivity ([4]; 10 and 30 mg/kg ip before d-amphetamine 2.0 mg/kg sc, FIG. 3a) | spontaneous activity (total activity counts) (spontaneous activity) | EC50 (5HT2C receptors [5]) [µM] | Emax (5HT2C receptors [5]; CHO-K1, read-out: Emax (%), 5-HT2c Agonist Activity, CHO-K1 cells) [%] | EC50 (5HT2B receptors) [µM] | AMP-induced hyperactivity ([4]; 1.0 and 3.0 mg/kg ip before d-amphetamine 2.0 mg/kg sc, FIG. 2a) |
| --- | --- | --- | --- | --- | --- | --- | --- | --- | --- | --- | --- | --- | --- |
|  |  |  | O=C1C[C@H]2CNCCN2c2ccccc2N1 [Example 2, (4aS)-1,2,3,4,4a,5-hexahydropyrazino[1,2-a][1,5]benzodiazepin-6(7H)-one] | attenuated PCP-induced hyperactivity significantly and in a dose dependent manner; also recorded: concentration-dependent effects of Example 2 attenuating the affect of phencyclidine (PCP) | 0.0192 | 90 | 0.016 |  |  |  |  |  |  |
|  |  |  | c1ccc2c(c1)OCC[C@H]1CNCCN21 [Example 169, (4aS)-2,3,4,4a,5,6-hexahydro-1H-pyrazino[2,1-d][1,5]benzoxazepine] |  |  |  |  | attenuated AMP-induced hyperactivity significantly and in a dose dependent manner; also recorded: concentration-dependent effects of Example 169 attenuating the affect of d-amphetamine | no effects; also recorded: No change in spontaneous activity regardless of dose | 0.001 | > 120 | > 10 |  |
| 0.02 | > 120 | > 10 | CCOc1ccc2c(c1)N1CCNC[C@@H]1CC(=O)N2 [Example 181, (4aS)-10-ethoxy-1,2,3,4,4a,5-hexahydropyrazino[1,2-a][1,5]benzodiazepin-6(7H)-one] |  |  |  |  |  | no effects; also recorded: No change in spontaneous activity regardless of dose |  |  |  | attenuated AMP-induced hyperactivity significantly and in a dose dependent manner; also recorded: concentration-dependent effects of Example 181 attenuating the affect of d-amphetamine |
